Patent US20260026505A1, “HERBICIDAL COMPOSITIONS” (SYNGENTA CROP PROTECTION AG, priority 2022, published 2026)
Values joined by “and” are separate entries in the source; they are usually repeats but may differ in a detail not shown here. Equal entries are not always repeated.

Columns and labels:
Type in all cases: in vivo
Conditions in all cases: after 13 days
[1] = tested on: Abutilon theophrasti (ABUTH); experiment: Glasshouse herbicide test, sprayed 1 day after sowing, visual percentage phytotoxicity, Colby synergy
Protocol: (§1) Seeds of Amaranthus retroflexus (AMARE), Echinochloa crus-galli (ECHCG), Digitaria sanguinalis (DIGSA), Lolium perenne (LOLPE), Alopecurus myosuroides (ALOMY), Chenopodium album (CHEAL), Setaria faberi(SETFA), Abutilon theophrasti(ABUTH), Setaria viridis (SETVI) and Ipomoea hederacea (IPOHE) were sown in standard sterilised soil in pots. After cultivation for 1 day under controlled conditions in a glasshouse (at 24/16° C., day/night; 14 hours light; 65% humidity), the plants were sprayed at 500 l/Ha with an aqueous spray solution derived from the formulation of the technical active ingredients in a small amount of acetone and a solvent and emulsifier mixture referred to as IF50 (11.12% Emulsogen EL360 TM+44.44% N-methylpyrrolidone+44.44% Dowanol DPM glycol ether), to create a 50 g/l solution which was then diluted using 0.2% Genapol X080 (CAS Number: 9043-30-5) as diluent to give the desired final dose of test compound. Where active ingredients were applied as mixtures, aqueous spray solutions were prepared as above, containing both active ingredients. The test plants were then grown under controlled conditions in a glasshouse (at 24/16° C., day/night; 14 hours light; 65% humidity) and watered twice daily. After 13 days, the test was evaluated visually for percentage phytotoxicity to the plants (where 100=total damage to plant; 0=no damage to plant) when compared to control untreated plants. Two to four replicates were applied for each treatment in a randomised block test design.
(§2) 22., E=X+Y−(X*Y/100), where • X=average percent phytotoxicity of herbicide A when applied at a certain rate • Y=average percent phytotoxicity using herbicide B when applied at a certain rate • E=the expected effect of the mixture of herbicides A and B as calculated from the Colby formula.

[2] = tested on: Ipomoea hederacea (IPOHE); experiment: as above
Protocol: as §1, §2

[3] = tested on: Amaranthus retroflexus (AMARE); experiment: as above
Protocol: as §1, §2

Setaria viridis (SETVI) = experiment: as above
Protocol: as §1, §2

Setaria faberi (SETFA) = experiment: as above
Protocol: as §1, §2

Lolium perenne (LOLPE) = experiment: as above
Protocol: as §1, §2

[4] = tested on: Alopecurus myosuroides (ALOMY); experiment: as above
Protocol: as §1, §2

[5] = tested on: Digitaria sanguinalis (DIGSA); experiment: as above
Protocol: as §1, §2

[6] = tested on: Chenopodium album (CHEAL); experiment: as above
Protocol: as §1, §2

[7] = tested on: Echinochloa crus-galli (ECHCG); experiment: as above
Protocol: as §1, §2

[8] = Glasshouse herbicide test, first A + B-20 table, weed species not given
Protocol: as §1, §2

CC1(C)CON(Cc2ccc(Cl)cc2Br)C1=O [A]
Observed (percentage phytotoxicity) ([1]; 7.81 g/ha): 6% | Observed (percentage phytotoxicity) ([1]; 31.25 g/ha): 5% and 11% | Observed (percentage phytotoxicity) ([1]; 125 g/ha): 31% | Observed (percentage phytotoxicity) ([2]; 7.81 g/ha): 1% and 0% | Observed (percentage phytotoxicity) ([2]; 15.63 g/ha): 0% and 5% | Observed (percentage phytotoxicity) ([2]; 31.25 g/ha): 1% | Observed (percentage phytotoxicity) ([2]; 62.5 g/ha): 1% | Observed (percentage phytotoxicity) ([3]; 3.91 g/ha): 11% | Observed (percentage phytotoxicity) ([3]; 31.25 g/ha): 21% | Observed (percentage phytotoxicity) ([3]; 62.5 g/ha): 31% and 50% | Observed (percentage phytotoxicity) ([3]; 125 g/ha): 74% | Observed (percentage phytotoxicity) (Setaria viridis (SETVI); 7.81 g/ha): 10% | Observed (percentage phytotoxicity) (Setaria viridis (SETVI); 15.63 g/ha): 26% | Observed (percentage phytotoxicity) (Setaria faberi (SETFA); 7.81 g/ha): 13% | Observed (percentage phytotoxicity) (Setaria faberi (SETFA); 15.63 g/ha): 11% | Observed (percentage phytotoxicity) (Setaria faberi (SETFA); 31.25 g/ha): 41% | Observed (percentage phytotoxicity) (Lolium perenne (LOLPE); 3.91 g/ha): 8% | Observed (percentage phytotoxicity) (Lolium perenne (LOLPE); 7.81 g/ha): 13% | Observed (percentage phytotoxicity) (Lolium perenne (LOLPE); 15.63 g/ha): 13% | Observed (percentage phytotoxicity) (Lolium perenne (LOLPE); 31.25 g/ha): 35% and 18% | Observed (percentage phytotoxicity) (Lolium perenne (LOLPE); 62.5 g/ha): 43% and 30% | Observed (percentage phytotoxicity) ([4]; 7.81 g/ha): 5% | Observed (percentage phytotoxicity) ([4]; 15.63 g/ha): 10% | Observed (percentage phytotoxicity) ([4]; 31.25 g/ha): 21% and 16% | Observed (percentage phytotoxicity) ([4]; 62.5 g/ha): 40% | Observed (percentage phytotoxicity) ([4]; 125 g/ha): 68% | Observed (percentage phytotoxicity) ([5]; 3.91 g/ha): 4% | Observed (percentage phytotoxicity) ([5]; 7.81 g/ha): 3% | Observed (percentage phytotoxicity) ([5]; 15.63 g/ha): 5% | Observed (percentage phytotoxicity) ([5]; 31.25 g/ha): 11% | Observed (percentage phytotoxicity) ([5]; 62.5 g/ha): 68% | Observed (percentage phytotoxicity) ([6]; 15.63 g/ha): 21% | Observed (percentage phytotoxicity) ([7]; 7.81 g/ha): 25% and 34% | Observed (percentage phytotoxicity) ([7]; 15.63 g/ha): 48% | Observed (percentage phytotoxicity) ([8]; 15.63 g/ha): 10% | Observed (percentage phytotoxicity) ([8]; 31.25 g/ha): 21%

CS(=O)(=O)c1ccc(C(=O)C2C(=O)CCCC2=O)c([N+](=O)[O-])c1 [Compound B-4]
Observed (percentage phytotoxicity) ([1]; 3.91 g/ha): 78% | Observed (percentage phytotoxicity) ([2]; 3.91 g/ha): 10% | Observed (percentage phytotoxicity) ([3]; 3.91 g/ha): 53% | Observed (percentage phytotoxicity) ([3]; 7.81 g/ha): 85% | Observed (percentage phytotoxicity) ([3]; 15.63 g/ha): 85% | Observed (percentage phytotoxicity) ([3]; 31.25 g/ha): 85% | Observed (percentage phytotoxicity) (Setaria faberi (SETFA); 3.91 g/ha): 5% | Observed (percentage phytotoxicity) (Setaria faberi (SETFA); 7.81 g/ha): 3% | Observed (percentage phytotoxicity) (Setaria faberi (SETFA); 15.63 g/ha): 8% | Observed (percentage phytotoxicity) ([4]; 3.91 g/ha): 0% | Observed (percentage phytotoxicity) ([4]; 7.81 g/ha): 3% | Observed (percentage phytotoxicity) ([5]; 3.91 g/ha): 70% | Observed (percentage phytotoxicity) ([7]; 3.91 g/ha): 5%

CCCN(CCC)C(=O)SCc1ccccc1 [Compound B-7]
Observed (percentage phytotoxicity) ([1]; 62.5 g/ha): 8% | Observed (percentage phytotoxicity) ([1]; 125 g/ha): 15% | Observed (percentage phytotoxicity) ([2]; 31.25 g/ha): 10% | Observed (percentage phytotoxicity) ([2]; 62.5 g/ha): 5% | Observed (percentage phytotoxicity) ([2]; 125 g/ha): 8% | Observed (percentage phytotoxicity) ([2]; 250 g/ha): 20% | Observed (percentage phytotoxicity) ([3]; 62.5 g/ha): 48% | Observed (percentage phytotoxicity) ([3]; 250 g/ha): 45% | Observed (percentage phytotoxicity) (Setaria viridis (SETVI); 31.25 g/ha): 5% | Observed (percentage phytotoxicity) (Setaria viridis (SETVI); 125 g/ha): 8% | Observed (percentage phytotoxicity) (Lolium perenne (LOLPE); 62.5 g/ha): 10% | Observed (percentage phytotoxicity) (Lolium perenne (LOLPE); 125 g/ha): 8% | Observed (percentage phytotoxicity) (Lolium perenne (LOLPE); 250 g/ha): 10% | Observed (percentage phytotoxicity) ([4]; 125 g/ha): 15% | Observed (percentage phytotoxicity) ([4]; 250 g/ha): 10% | Observed (percentage phytotoxicity) ([5]; 62.5 g/ha): 13% | Observed (percentage phytotoxicity) ([5]; 125 g/ha): 3% | Observed (percentage phytotoxicity) ([6]; 62.5 g/ha): 9% | Observed (percentage phytotoxicity) ([6]; 125 g/ha): 15% | Observed (percentage phytotoxicity) ([6]; 250 g/ha): 15%

Cn1nc(C(F)(F)F)c(CS(=O)(=O)C2=NOC(C)(C)C2)c1OC(F)F [Compound B-9]
Observed (percentage phytotoxicity) ([1]; 3.91 g/ha): 40% | Observed (percentage phytotoxicity) ([1]; 7.81 g/ha): 55% | Observed (percentage phytotoxicity) ([2]; 7.81 g/ha): 53% | Observed (percentage phytotoxicity) ([2]; 15.63 g/ha): 73% | Observed (percentage phytotoxicity) ([3]; 1.95 g/ha): 40% | Observed (percentage phytotoxicity) (Lolium perenne (LOLPE); 1.95 g/ha): 14% | Observed (percentage phytotoxicity) (Lolium perenne (LOLPE); 3.91 g/ha): 40% | Observed (percentage phytotoxicity) (Lolium perenne (LOLPE); 7.81 g/ha): 44% | Observed (percentage phytotoxicity) (Lolium perenne (LOLPE); 15.63 g/ha): 48% | Observed (percentage phytotoxicity) (Lolium perenne (LOLPE); 31.25 g/ha): 66% | Observed (percentage phytotoxicity) ([5]; 1.95 g/ha): 13% | Observed (percentage phytotoxicity) ([5]; 3.91 g/ha): 43% | Observed (percentage phytotoxicity) ([5]; 7.81 g/ha): 65%

CC(C)N(C(=O)COc1nnc(C(F)(F)F)s1)c1ccc(F)cc1 [Compound B-16]
Observed (percentage phytotoxicity) ([1]; 15.63 g/ha): 23% | Observed (percentage phytotoxicity) ([2]; 3.91 g/ha): 5% | Observed (percentage phytotoxicity) ([2]; 7.81 g/ha): 8% | Observed (percentage phytotoxicity) ([3]; 31.25 g/ha): 70% | Observed (percentage phytotoxicity) (Lolium perenne (LOLPE); 3.91 g/ha): 45% | Observed (percentage phytotoxicity) ([6]; 15.63 g/ha): 48%

O=C(Nc1ccc(F)cc1F)c1cccnc1Oc1cccc(C(F)(F)F)c1 [Compound B-20]
Observed (percentage phytotoxicity) ([1]; 3.91 g/ha): 8% | Observed (percentage phytotoxicity) ([1]; 15.63 g/ha): 20% | Observed (percentage phytotoxicity) ([1]; 31.25 g/ha): 18% | Observed (percentage phytotoxicity) ([2]; 31.25 g/ha): 5% | Observed (percentage phytotoxicity) ([5]; 31.25 g/ha): 68% | Observed (percentage phytotoxicity) ([6]; 15.63 g/ha): 8% | Observed (percentage phytotoxicity) ([7]; 15.63 g/ha): 10% | Observed (percentage phytotoxicity) ([8]; 15.63 g/ha): 23% | Observed (percentage phytotoxicity) ([8]; 31.25 g/ha): 23%
